Assay [1] deals with R6/2 mice. Put plainly: Neuronal death in R6/2 mice brain (NeuN immunofluorescence staining, Western blotting). In kind it is in vivo. The conditions noted are these: 10 mg/kg oral gavage daily. The procedure:
(§1) FIG. 3A: The numbers of neurons (identified by the expression of NeuN; green color) and the level of mutant huntingtin (red color) in the striatum of the mice were analyzed by confocal microscope. Nuclei were stained with Hoechst (blue color).
(§2) The method was according to the previous report. In brief, brain sections were incubated overnight with anti-lba-I polyclonal antibody (1:500), anti-NeuN polyclonal antibody (1:500), anti-NLRP3 monoclonal antibody (1:200) or anti-EM48 monoclonal antibody (1:500) in PBS containing 5% normal goat serum at 4° C. and then incubated with the corresponding secondary antibody for 2 h at room temperature. Nuclei were stained with Hoechst 33258. Slides were mounted and analyzed with a laser confocal microscope.
The present example further investigates the effect of Antcin H in the neuronal death of R6/2 mice brains by immunofluorescence staining. […] R6/2 mice or WT mice were treated with AH (10 mg/kg of body weight) or vehicle by oral gavage daily starting from the age of 7 weeks to the age of 12 weeks. WT-Vehicle: n=6; WT-AH: n=6; R6/2-vehicle: n=6; R6/2-AH: n=6. The data are presented as the mean±SEM. Label “a” in chart means p<0.05, between WT and R6/2 mice. Label “b” in chart means p<0.05 vs. vehicle-treated R6/2 mice.

Assay [2] deals with NLRP3 inflammasome in J774A.1 macrophages. Put plainly: IL-1β ELISA in LPS-primed, ATP-activated J774A.1 macrophages. It counts as cell-based. The conditions noted are these: 1 μg/ml LPS 5 h, Antcin H 0.5 h, 5 mM ATP 0.5 h. As for the experimental part:
(§3) FIG. 6A: J774A.1 macrophages were treated with or without 1 μg/ml LPS for 5 h, followed by treated with or without Antcin H for 0.5 h. Cells were then activated by 5 mM ATP for 0.5 h; FIG. 6B: J774A.1 macrophages were treated with or without 1 μg/ml LPS for 5 h, followed by treated with or without 50 μM Antcin H for 0.5 h. Cells were then activated by 5 mM ATP for 0-60 min.
(§4) BV2 microglia were treated with or without 1 μg/ml LPS for 5 h, followed by treated with or without 1 or 5 μM Antcin H for 0.5 h. Cells were then activated by 1 mM ATP for 24 h. The IL-1β levels in the supernatants were measured by ELISA, and the levels of iNOS and NLRP3 in the cell lysates were measured by Western blotting. J774A.1 macrophages were treated with or without 1 μg/ml LPS for 5 h, followed by treated with or without Antcin H for 0.5 h. Cells were then activated by 5 mM ATP for 0.5 h. The IL-1β levels in the supernatants were measured by ELISA.
In general terms: ELISA stands for enzyme-linked immunosorbent assay.

Assay [3] relates to J774A.1 macrophages. The assay is described as follows: ATP-induced intracellular ROS (CM-H2DCFDA) in LPS-primed J774A.1 macrophages. It counts as cell-based. The note with it: 1 μg/ml LPS 5 h, 50 μM Antcin H 0.5 h, 5 mM ATP 0-60 min. As for the experimental part:
as §3
(§5) STHdh^Q7 and STHdh^Q109 cells were treated with 5 or 10 μM Antcin H or vehicle (DMSO) in the presence of 10 μM intracellular ROS indicator fluorescent probe CM-H2DCFDA (Molecular Probes, Inc., Eugene, Oregon, USA) for 1 h. Intracellular ROS (Reactive Oxygen Species) levels were measured by detecting the fluorescence intensity (Excitation/Emission: 488 nm/510 nm) using a fluorescence plate reader (Fluoroskan Ascent; Thermo Electron Corporation, Woburn, MA, USA). J774A.1 macrophages were treated with or without 1 μg/ml LPS for 5 h, followed by treated with or without 50 μM Antcin H for 0.5 h. […] The levels of intracellular ROS were measured by CM-H2DCFDA staining and detected by a fluorescence plate reader.
In addition, ROS is one of the crucial elements for NLRP3 inflammasome activation (Tschopp and Schroder, 2010). […] The levels of intracellular ROS were measured by CM-H2DCFDA staining and detected at an excitation wavelength of 488 nm and an emission wavelength of 510 nm on a […]. […]

The subject of assay [4] is R6/2 mice. Put plainly: Disease progression of R6/2 transgenic mouse model of HD (body weight, rotarod, survival, clasping). In kind it is in vivo. The conditions noted are these: 10 mg/kg oral gavage daily. As for the experimental part:
R6/2 mice or wild-type mice were treated with Antcin H (10 mg/kg of body weight) or vehicle by oral gavage daily starting from the age of 7 weeks to the age of 12 weeks. Mice were tested on a Rotarod apparatus three times a week. Motor coordination was assessed using a rotarod apparatus assay (UGO BASILE, Comerio, Italy) at a constant speed (12 rpm) over a period of 2 min. The body weight and the lifespan were monitored weekly.
To investigate the therapeutic potential of Antcin H in the pathogenesis of Huntington's disease, R6/2 mice were used as an animal model of HD. R6/2 mice or wild-type mice were treated with Antcin H (10 mg/kg of body weight) or vehicle by oral gavage daily starting from the age of 7 weeks to the age of 12 weeks. […] WT-Vehicle: n=10; WT-AH: n=10; R6/2-vehicle: n=8; R6/2-AH: n=10. The data are presented as the mean±SEM. Label “a” in chart means p<0.05, between WT and R6/2 mice. Label “b” in chart means p<0.05 vs. R6/2-vehicle.

In assay [5] the test system is STHdh^Q109 cells. Put plainly: Intracellular ROS analysis (CM-H2DCFDA) in a cell model of HD. In kind it is cell-based, mice. The conditions noted are these: 5 or 10 μM Antcin H, H2DCFDA staining.
From the text: (§6) Conditionally immortalized wild-type STHdh^Q7 striatal neuronal progenitor cells expressing endogenous normal htt (referred to as wild-type striatal cells), and homozygous mutant STHdh^Q109 striatal neuronal progenitor cells from homozygous STHdh^Q109 knock-in mice expressing mutant htt with 109 glutamines (referred to as mutant striatal cells). STHdh^Q7 and STHdh^Q109 cells were generous gifts from Dr. Elena Cattaneo and Marta Valenza (Department of pharmacological sciences and center for stem cell research, University of Milano, Italy). These cells were maintained in an incubation chamber at 33° C. in Dulbecco's modified Eagle's medium supplemented with 10% fetal bovine serum.
as §5, with “reader. […]” for “reader.”

In assay [6] the test system is mutant huntingtin (mHtt). The assay is described as follows: mHtt aggregation in striatum of R6/2 mice (confocal microscope, filter retardation assay). The conditions noted are these: 10 mg/kg oral gavage daily, age 7 to 12 weeks, confocal intensity and filter retardation assay. In kind it is in vivo. The procedure:
as §1
Brain tissues will be suspended and homogenized in ice-cold RIPA buffer (50 mM Tris-HCl, 0.25% sodium deoxycholate, 1% Triton X-100, 150 mM NaCl, 1 mM phenylmethylsulfonyl fluoride, 1 mM Na3VO4, 0.5 mg/mL aprotinin, 0.1 mM leupeptin, and 4 mM pepstatin), mixed with 2% SDS, and applied to OE66 membrane filters ([…]; Whatman Schleicher and Schuell, Middlesex, UK) through a slot-blot manifold (Bio-Rad, Irvine, CA, USA). The blots will be blocked with 5% skim milk in PBS and incubated overnight with an anti-EM48 antibody (1:500; Millipore Bioscience Research Reagents, Temecula, CA, USA) at 4° C., followed by incubation with the corresponding secondary antibody for 1 h at RT. The immunoreactive bands will be detected by ECL (Pierce, Rockford, IL, USA) and recorded using Kodak XAR-5 film.
The method was according to the previous report. […] Slides were mounted and analyzed with a laser confocal microscope. […]

The subject of assay [7] is NLRP3 inflammasome in BV2 microglia. Put plainly: IL-1β ELISA in LPS-primed, ATP-activated BV2 microglia. In kind it is cell-based. The note with it: 1 μg/ml LPS 5 h, 1 or 5 μM Antcin H 0.5 h, 1 mM ATP 24 h. As for the experimental part: as §4
(§7) Microglia are macrophage-like immune cells of the central nervous system. […] (Subhramanyam et al., 2019). In addition, overexpressed IL-1β, the end-product of the NLRP3 inflammasome, plays important roles in the development of many diseases including neurodegenerative diseases (Siew et al., 2019). NLRP3 inflammasome composed of NLRP3, ASC and caspase-1 and controls the maturation and release of IL-1β. NLRP3 inflammasome can be activated by medical relevant stimuli such as ATP from damage tissues and amyloid-β of Alzheimer's disease (Guo et al., 2015). […] BV2 microglia were treated with or without 1 μg/ml LPS for 5 h, followed by treated with or without 1 or 5 μM Antcin H for 0.5 h. Cells were then activated by 1 mM ATP for 24 h. The data are presented as the mean±SEM from three independent experiments. […]

Assay [8] concerns activated microglia. Put plainly: lba-1 immunofluorescence staining for activated microglia in striatum of R6/2 mice. The conditions noted are these: 10 mg/kg oral gavage daily, age 7 to 12 weeks, vs vehicle-treated R6/2 mice. It counts as in vivo. As for the experimental part:
(§8) FIG. 4A: The numbers of activated microglia in the striatum were identified by lba1 staining (green color), and the numbers of NLRP3 positive cells in the striatum were identified by NLRP3 staining (red color). Nuclei were stained with Hoechst (blue color).
as §2
(§9) HD commonly associated with inflammation in nervous system and activated microglia. […] FIG. 4 show Antcin H reduced NLRP3 expression in microglia of R6/2 mice. R6/2 mice or WT mice were treated with AH (10 mg/kg of body weight) or vehicle by oral gavage daily starting from the age of 7 weeks to the age of 12 weeks. WT-Vehicle: n=6; WT-AH: n=6; R6/2-vehicle: n=6; R6/2-AH: n=6. The data are presented as the mean±SEM. Label “a” in chart means p<0.05, between WT and R6/2 mice. Label “b” in chart means p<0.05 vs. vehicle-treated R6/2 mice.

Assay [9] relates to STHdh^Q109 cells. Put plainly: Cell viability analysis (CCK-8 assay) in a cell model of HD. It counts as cell-based, mice. The conditions noted are these: 24 h, vs vehicle-treated cells.
From the text: as §6
STHdh^Q7 and STHdh^Q109 cells were treated with 5 or 10 μM Antcin H or vehicle (DMSO) for 24 h. STHdh^Q7 and STHdh^Q109 cells viability was quantified by the CCK-8 assay. The survival rate of the indicated cells was normalized to those survival rate of vehicle-treated STHdh^Q7 cells.
To investigate the neuroprotective potential of Antcin H in CNS disease, the present example used striatal cell line as an in vitro model of Huntington's disease. STHdh^Q109 cells carry the polyQ-expanded mouse gene Htt, which encodes 109 CAG repeats in the Htt gene. Compared with STHdh^Q109 cells, the control cell line (STHdh^Q7) only carry 7 copies of the CAG repeat. […]
Background: Tetrazolium assays rely on reduction of a dye to a coloured formazan, in cell work by metabolically active cells.

The subject of assay [10] is BV2 microglia. The assay is described as follows: iNOS and NLRP3 Western blotting in LPS and ATP activated BV2 microglia. It counts as cell-based. The conditions noted are these: 1 μg/ml LPS 5 h, 1 or 5 μM Antcin H 0.5 h, 1 mM ATP 24 h. As for the experimental part:
as §4, §7
(In general: Immunoblotting shows a protein as a band on a membrane.)

Assay [11] concerns NLRP3. Put plainly: NLRP3 immunofluorescence staining in striatum of R6/2 mice. In kind it is in vivo. The note with it: 10 mg/kg oral gavage daily, age 7 to 12 weeks, vs vehicle-treated R6/2 mice. The procedure: as §8, §2, §9
Setting [12] is: age 7 to 12 weeks, vs vehicle-treated R6/2 mice.

Each structure is given as a SMILES string.

On to `C=C(CCC(=C)[C@H]1CCC2C3=C(C(=O)[C@H](O)[C@@]21C)[C@@]1(C)CC[C@@H](O)[C@@H](C)C1CC3=O)C(C)C(=O)O` (some centres unmarked) [Antcin H], for which the “neuronal cells number in the brain (NeuN, confocal microscope)” value in assay [1] (setting [12]) is recorded as “significant increased”. In assay [1] (brain lysates at age of 12 weeks), the “NeuN protein expression in the brain (Western blotting)” value is “increasing expression of NeuN protein”. Moreover, the “ATP-induced IL-1β secretion (IL-1β levels in the supernatants, ELISA)” value in [2] was “inhibited by Antcin H (FIG. 6A) in a dose-dependent manner”. The “ATP-induced ROS production” value in assay [3] is on record as “significantly reduced ATP-induced ROS production”. Besides, the “rotarod performance (latency to fall)” value in assay [4] (age 7 to 12 weeks, 12 rpm, 2 min) is given as “increased latency to fall”. The body weight result in [4] (setting [12]) is “higher weekly weight gain”. Moreover, the survival rate in assay [4] (at 12 weeks of age) is reported as 100%. Further, the clasping score result in assay [4] (at 12 weeks of age, vs vehicle-treated R6/2 mice) is “lower clasping score”. In [5], the “intracellular ROS levels” value is “significantly reduced the intracellular ROS levels”. For the same compound, the “mutant huntingtin aggregation in the striatum” value in assay [6] was “reduced the mutant huntingtin aggregation”. In addition, the “ATP-induced IL-1β expression (IL-1β levels in the supernatants, ELISA)” value in assay [7] was “reduced ATP-induced IL-1β expression”. In addition, the “number of lba-1 positive cells in striatum” value in [8] was “decreased”. In addition, in [9] (5 μM Antcin H), the “cell survival ratio (CCK-8 assay)” value was “higher survival ratio then vehicle-treated cells”. For the same compound, the “cell survival ratio (CCK-8 assay)” value in assay [9] (10 μM Antcin H) is “higher survival ratio then vehicle-treated cells”. Moreover, in [10], the “expression level of NLRP3, Western blotting” value is on record as “reduced the expression levels” and the “expression level of inducible nitric oxide synthase (iNOS), Western blotting” value is given as “reduced the expression levels”. Further, the “number of NLRP3 positive cells in striatum” value in assay [11] is reported as “significantly reduced the number of NLRP3 positive cells”.

For the origin of these results see US20230364112A1, “Use of Antcin H and Its Derivatives for Treating Central Nervous System Diseases” (ALPS BIOTECH CO., LTD., priority 2020, published 2023).
